Measurements: patent publication US10758627B2, “Peptide-polynucleotide complex for polynucleotide transfection” (Washington University, priority 2015, dated 2020)

System: B16 cells stably expressing GFP-PEST
Assay: Screening for siRNA knockdown: delivery of GFP siRNA for knockdown of GFP in B16 GFP cells
Assay type: cell-based
Settings: for Able to transfect?: peptide/GFP siRNA particle
Experimental: Knockdown of B16 cells stably expressing GFP-PEST allowed quick screening for effective siRNA knockdown of GFP expression because the PEST sequence shortens GFP half-life from 26 to 10 hours. Melittin derivatives were chosen based on modifications designed to decrease cytotoxicity as well as improve interactions with oligonucleotides. These peptides were screened for their ability to deliver GFP siRNA for the knockdown of GFP in B16 GFP cells (Table 1, FIG. 1).
The melittin derivatives were formulated by Genscript (Piscataway, N.J.), dissolved at 10 mM in RNAse/DNAse free water (Sigma, St. Louis, Mo.) and stored in 4 μl aliquots at −80° C. before use. Transfection complexes were prepared by diluting the peptide 1:200 in phosphate buffered saline (PBS, Sigma), vortexed for 30 seconds, followed by addition of the appropriate amount of siRNA (stock concentration of 10 μM in 1× siRNA buffer (Thermo)) and incubated for 40 minutes at 37° C. with shaking in an Eppendorf Thermomixer R. Resulting nanoparticles were analyzed for siRNA incorporation by resolution on a 12% polyacrylamide gel followed by ethidium bromide staining. Dynamic light scattering (DLS) and zeta potential measurements were performed on a Zeta Plus particle sizer (Brookhaven Instruments, Newton, Mass.). Serum stability analysis was performed by incubating freshly formed peptide/siRNA nanoparticles in 10 mg/ml Human Serum Albumin (HSA, Sigma) overnight followed by DLS and zeta potential measurements.
B16F10 and RAW264.7 (ATCC, Manassas, Va.) cell lines can be maintained under standard cell culture conditions (37° C. and 5% CO2 in a humidified incubator) in DMEM (Gibco, Carlsbad, Calif.) supplemented with 10% fetal bovine serum (Gibco). B16F10 cells stably expressing GFP can be produced as follows. B16F10 can be transfected (Lipofectamine 2000, Invitrogen) with a fusion of EGFP (pEGFP-N1, Clontech) and the PEST sequence from mouse ornithine decarboxylase (S421-V461) in pEF6V5HisTOPO (Invitrogen). Cells are selected for four rounds with cell sorting by flow cytometry without antibiotic selection. Typically, an aliquot of cells can be maintained in continuous culture for a month without a noticeable change in EGFP expression level. Human umbilical vein endothelial cells (HUVECs) can be purchased from Lifeline Technologies (Frederick, Md.) and cultured in VascuLife Basal Medium (Lifeline Technologies) supplemented with 5 ng/mL EGF, 5 ng/ml bFGF, 15 ng/mL IGF-1, 50 μg/mL ascorbic acid, 1 μg/mL hydrocortisone hem isuccinate, 0.75 U/mL Heparin Sulfate, 10 mM L-glutamine, 2% fetal bovine serum in accordance with manufacturer instructions.
For transfection, cells can be plated in 6 well plates 12 hours before transfection and cultured under standard cell culture conditions. Peptide/siRNA nanoparticles are prepared and incubated with cells for 4 hours in a final volume of 1 mL Optimem I (Gibco) or appropriate media supplemented with 10% FBS. Transfections are scaled accordingly for cells plated in 12 well plates based on cell culture surface area. After transfection, cells are washed twice with PBS and incubated with standard cell culture medium for another 24-72 hours before analysis. Lipofectamine 2000 can be used in accordance with the manufacturer's protocol. Briefly, Lipofectamine 2000 is diluted in Optimem I to a final concentration of 8.4 μg/ml and incubated at room temperature for 15 minutes. siRNA is then added to the diluted lipid and incubated for another 40 minutes before dilution to 1 mL total volume with Optimem I for transfection. Suitable eGFP siRNA can be purchased from Sigma. siGENOME mouse MAPK9 siRNA1, siGENOME mouse STAT3 siRNA2, and siGENOME human STAT3 siRNA2 gene specific siRNAs can be purchased from Dharmacon (Lafayette, Colo.). Scrambled siRNA can be purchased from Qiagen (Valencia, Calif.).

[1] = charge ratio (+/−) 6:1 (peptide/siRNA 28:1 to 62:1 depending on peptide)
[2] = charge ratio (+/−) 12:1 (peptide/siRNA 56:1 to 124:1 depending on peptide)
[3] = charge ratio (+/−) 24:1 (peptide/siRNA 112:1 to 248:1 depending on peptide)
[4] = ratio of peptide:polynucleotide between 50:1 and 200:1

Row | Compound | Able to transfect? [1] | Able to transfect? [2] | Able to transfect? [3] | GFP knockdown [4] | ability to transfect [4] | toxicity to cells in the tested concentration range (B16 GFP cells, concentration range of the screen) | ability to transfect (ratio of 50:1) | ability to transfect (ratio of peptide:polynucleotide less than 50:1)
1 | VLTTGLPALISWIKRKRQQC [Peptide 5C] | No | No | No | – | – | – | – | –
2 | VLTTGLPALISWIKRKRQQRWRRRR [Peptide 5RWR] | No | No | No | – | – | – | – | –
3 | VLTTGLPALISWIRRRHRRHC [Peptide 5RHH] | Yes | Yes | Yes | exhibited GFP knockdown | able to transfect | – | – | –
4 | CC[C@H](C)[C@H](NC(=O)CN)C(=O)NCC(=O)N[C@@H](C)C(=O)N[C@H](C(=O)N[C@@H](CC(C)C)C(=O)N[C@@H](CCCCN)C(=O)N[C@H](C(=O)N[C@@H](CC(C)C)C(=O)N[C@H](C(=O)N[C@H](C(=O)NCC(=O)N[C@@H](CC(C)C)C(=O)N1CCC[C@H]1C(=O)N[C@@H](C)C(=O)N[C@@H](CC(C)C)C(=O)N[C@H](C(=O)N[C@@H](CO)C(=O)N[C@@H](Cc1c[nH]c2ccccc12)C(=O)N[C@H](C(=O)N[C@@H](CCCCN)C(=O)N[C@@H](CCCNC(=N)N)C(=O)N[C@@H](CCCCN)C(=O)N[C@@H](CCCNC(=N)N)C(=O)N[C@@H](CCC(N)=O)C(=O)N[C@@H](CCC(N)=O)C(N)=O)[C@@H](C)CC)[C@@H](C)CC)[C@@H](C)O)[C@@H](C)O)C(C)C)C(C)C [Melittin] | No | Toxic | Toxic | – | – | too toxic | – | –
5 | VLTTGLPALISWIKRKRQHRWRRRR [Peptide 5RWRH] | Yes | No | No | – | – | – | did not work | able to transfect
